Measurements as given in patent publication US20060134126A1, “Peptide constructs for treating disease” (priority 2002, published 2006).
Ends that are not written are not given here.

Assays:
SF/GF peptide = assay: Serum antibody ELISA to SF/GF peptide; assay type: in vivo, mouse
Source text: (§1) Next using another antigen with B and T cell activity two inbred strains of mice, (A/J and Balb/c) were immunized twice at three week intervals with the L.E.A.P.S.™ constructs (J-GF/SF or der-SF/GF) or with the subunits (SF/GF, J and derG) used to make heteroconjugated peptides, and were challenged with 100 Plasmodium yoelii sporozoites 2 weeks after the second immunization and protection efficacy evaluated as before. Four days before challenge, serum was collected from individual animals, pooled and analyzed immediately for antibody to SF/GF peptide sera collected from immunized and protected mice 15 days post challenge were pooled and used for IFN-γ determination by ELISA procedures.

[1] = system: plasmodium yoelii sporozoites; assay: Protection from sporozoite challenge, TCBL derG in inbred mice (Tables 5, 6); assay type: in vivo
Source text: as §1
Another experiment similar to the first except only a single strain of mice (A/J) was used with decreasing doses of the derG in order to evaluate potency as shown in Table 6.

[2] = system: plasmodium yoelii sporozoites; assay: Protection from sporozoite challenge in different mouse strains (Table 7); assay type: in vivo; conditions: 25 μg, 2 times at 3 week intervals, TiterMax
Experimental: Since derG alone was able to protect A/J mice against Plasmodium yoelii sporozoites challenge, in the absence of malaria antigen, a similar experiment was conducted to evaluate the protective efficacy of derG in three other mouse strains: BALB/c (H2d), C3H/HeJ (H2K) and hybrid CAF1 (A/J×BALB/c).
Groups of 10 mice were pre-treated 2 times at 3 week intervals with 25 μg of derG in TiterMax™ adjuvant and challenged with 100 Plasmodium yoelii sporozoites. Protective efficacy was evaluated as described above.

B16 melanoma = assay: Allogeneic murine B16 melanoma protection model; assay type: in vivo, mouse; conditions: for Protection: in combination with allogeneic cells
Experimental: In particular, C57/b16 (H2^b) mice are vaccinated with the allogeneic melanoma K1735 (H2^k) at least twice on weekly intervals and then challenged with syngeneic B16 (H2^b) tumors. […] This is clear evidence of cross-priming and the existence of shared antigens.
Peptide constructs were prepared using as T cell binding ligand, either derG (SEQ ID NO. 7), Peptide G (SEQ ID NO. 5). The peptides are synthesized using the FMOC procedure and a double coupling protocol for the first 8 residues. Usually the peptide is prepared with the carboxyl terminus as an amide form. All of the peptides are purified using prepatative HPLC, and analyzed by an analytical HPLC, amino acid analysis and mass spectrophotometer. The peptides are greater than 95%, usually greater than 98%, pure by HPLC criteria. The dry peptides are stored in vials with desiccant at −8° C. • 1) Eight groups of seven mice were injected with 200 μl of the vaccine as shown in FIG. 1. • 2) This was repeated after 7 days. • 3) A further 7 days later, mice were challenged with 200 μl saline containing 5×10^4 live B16 on the contralateral side to vaccination. • 4) Mice were sacrificed when tumor size exceeded 15 mm in either axis.
In order more precisely model the use of clinical allogeneic vaccines, a frozen vaccine was used in the mouse model wherein K-1735 cells were thawed just prior to use. Efficacy in the protection model ranged from 40-10%. Additionally, the antigen TRP2 (a.a. 180-188), found in B16 melanoma, was engineered into L.E.A.P.S.™ constructs and was tested in various permutations in the allogeneic murine melanoma model. Optimization may be necessary.

[3] = system: P. yoelii (non lethal strain 17XNL) sporozoites; assay: Comparison of lots and forms of derG in malaria system (Table 9); assay type: in vivo; conditions: A/J mice, 5 μg two times, TiterMax
Experimental: Four (4) groups of 10 mice (4-to 6-wk-old female A/J) were subcutaneously two times at 3-week intervals with 5 μg of the derG peptide, emulsified in TiterMax™ at 1:1 ratio as previously described. Two other groups of mice treated with TiterMax™ alone and untreated mice served as controls. Fourteen days after the second treatment mice were intravenously challenged with 100 P. yoelii (non lethal strain 17XNL ) sporozoites. Parasitemia was determined by microscopic examination of 200 oil-immersion fields of Geimsa stained-thin blood smears obtained from the mice at 5, 7, and 14 days post challenge.
In particular, the derG(19) peptide contains an additional glycine amino acid inserted between the A 140 and V 142 residues. The rationale for the insertion was that these two residues are involved in the CD4 interaction as disclosed in Konig et al. “MHC class II interaction with CD4 medicated by a region analogous to the MHC class I binding site for CD8”, Nature 1992; 356:796-798.

IFN-γ = assay: Serum IFN-γ by ELISA; assay type: in vivo, mouse; conditions: A/J mice, sera pooled 15 days post challenge
Source text: as §1

HSV-1 = assay: Scarification-zosteriform spread model of HSV infection; assay type: in vivo; conditions: A/J mice
Experimental: Groups of 4-to 6-wk old female A/J mice were subcutaneously inoculated once with 25 μg of the derG peptide emulsified in ISA51 adjuvant at a 1:1 ratio before challenge unless otherwise specified. Untreated mice and mice treated with adjuvant served as additional controls. The mice were challenged as specified in methods well known to those of ordinary skill in the art and as exemplified by Goel et al. (“The Ability of an HSV Strain to Initiate Zosteriform Spread Correlates with its Neuroinvasive Disease Potential”, Arch Virol 147:763-773 (2002)) and Goel et al., (“A Modification Of The Epidermal Scarification Model Of Herpes Simplex Virus Infection To Achieve A Reproducible And Uniform Progression Of Disease”, J Virol Meth 106;153-8 (2002)).
In particular, hair is removed by shaving and then Nair® is applied. Twenty-fours later the depilated back of a mouse is scratched or abraded to expose the susceptible epidermal layer and virus rubbed in. To provide more detail, 10 μl of a virus suspension containing 6×10^4 plaque forming-units was pipetted onto a 0.5 cm square of skin on mouse dorsal surface, which was previously abraded using sand paper glued on a pencil eraser. In untreated animals, the primary lesion developed at the inoculation site within 3 days and spread to the associated root, followed by anterograde transport and formation of secondary lesions at sites along the dermatome of the nerves within 5 days. In severe cases, animals died within 8 days post viral challenge. Disease progression and survival were monitored for at least 10 days. […] The progression and the severity of the lesions was scored from 0 to 7 (death). This model allows for discrimination of the disease progression (local site, neuronal spread, extent of lesion at the dermatome, death) at which the immune system blocks viral progression. In some experiments modifications in the timing, route of administration and mouse strain were evaluated for efficacy of CEL-1000.

[4] = system: plasmodium yoelii sporozoites; assay: Malaria protection assay, G/W peptides (Table 4); assay type: in vivo; conditions: Experiment 2, outbred CD-1 mice; 25 μg twice; 200 sporozoites
Experimental: In particular, mice were immunized twice at three week intervals with 25 μg of the subunits (W or G) used to make the L.E.A.P.S.™ construct (GW), and were challenged with 200 plasmodium yoelii sporozoites 2 weeks after the second immunization. Protective efficacy was evaluated by thin blood smears every other day starting 4 days after the challenge. Mice were considered protected if no blood stage parasites were detectable by 14 days after challenge.

[5] = A/J mice, dose 5 μg, serum pool 4 days before challenge
[6] = A/J mice, dose 25 μg, serum pool 4 days before challenge
[7] = Balb/c mice, dose 25 μg, Table 5
[8] = A/J mice, dose 1.25 μg, Table 6

Substance	Antibody ELISA A490* (SF/GF peptide; [5])	Antibody ELISA A490* (SF/GF peptide; [6])	Antibody ELISA A490* (SF/GF peptide; Balb/c mice, dose 25 μg)	Protection (%) ([1]; A/J mice, dose 5 μg, Table 5)	Protection Protected/Tested ([1]; A/J mice, dose 5 μg, Table 5)	Protection (%) ([1]; A/J mice, dose 10 μg, Table 6)	Protection Protected/Tested ([1]; A/J mice, dose 10 μg, Table 6)	Protection (%) ([1]; A/J mice, dose 25 μg, Table 5)	Protection Protected/Tested ([1]; A/J mice, dose 25 μg, Table 5)	Protection (%) [1, 7]	Protection Protected/Tested [1, 7]	IFN-γ serum (IFN-γ; dose 5 μg)	IFN-γ serum (IFN-γ; dose 25 μg)	Protection (%) ([1]; A/J mice, dose 5 μg, Table 6)	Protection Protected/Tested ([1]; A/J mice, dose 5 μg, Table 6)	further results
DLLKNGERIEKVEGGG [J, short fragment from β2-microglobulin (a.a. 38-50)]	1	2	2	(10%)	1/10	(10%)	1/10	(10%)	1/10	(0%)	0/10	–	–	–	–	–
DGQEEKAGVVSTGLIGGGamide (DGQEEKAGVVSTGLIGGG-NH2) [derG, modified fragment from MHC II β-chain (a.a.135-149)]	2	2	4	(100%)	10/10	–	–	(100%)	10/10	(0%)	0/10	40,000 pg/mL	18,000 pg/mL	(100%)	10/10	Protection ([2]; A/J mice): 80; Protection ([2]; BALB/c mice): 0; Protection ([2]; C3H mice): 40; Protection ([2]; CAF1 hybrid mice): 40; Protection (B16 melanoma; first value named of two experiments): 30%; Protection (B16 melanoma; second value named of two experiments): 40%; % Protected ([3]; form 18): 90%; Protected/Total ([3]; form 18): 9/10; protection from lethal HSV-1 challenge (HSV-1): protects; Protection (HSV-1; intramuscularly 2 weeks prior to challenge, without adjuvant, in aqueous solution): 100%; onset of symptoms, morbidity and mortality (HSV-1; single dose of 25 μg, timing of administration): delay in onset of symptoms; Protection (%) [1, 8]: (60%); Protection Protected/Tested [1, 8]: 6/10; Protection (%) ([1]; A/J mice, dose 2.5 μg, Table 6): (80%); Protection Protected/Tested ([1]; A/J mice, dose 2.5 μg, Table 6): 9/10
DGQEEKAGGVVSTGLIGGGamide (DGQEEKAGGVVSTGLIGGG-NH2) [derG(19), derG with an additional glycine inserted between the A 140 and V 142 residues]	–	–	–	–	–	–	–	–	–	–	–	–	–	–	–	% Protected ([3]; Lot 1): 40%; Protected/Total ([3]; Lot 1): 4/10; % Protected ([3]; Lot 2): 30%; Protected/Total ([3]; Lot 2): 3/10; % Protected ([3]; Lot 3): 50%; Protected/Total ([3]; Lot 3): 5/10
DGQEEKAGVVSTGLIGGGSFPMNEESPLGFSPEEMEAVASKFR [derG-GF/SF]	1,933	10,694	17,019	(80%)	8/10	–	–	(100%)	10/10	(0%)	0/10	7,000 pg/mL	6,000 pg/mL	(10%)	1/10	–
NGQEEKAGVVSTGLIGGGamide (NGQEEKAGVVSTGLIGGG-NH2) [G + TM]	–	–	–	–	–	–	–	–	–	–	–	–	–	–	–	activity compared with derG (B16 melanoma; differences from derG): much less active; # Protected/# tested [4]: 6/16; % protection [4]: 38%
SFPMNEESPLGFSPEEMEAVASKFR [GF/SF]	8,443	19,970	–	(30%)	3/10	(50%)	5/10	(100%)	10/10	–	–	10,000 pg/mL	12,500 pg/mL	(10%)	1/10	–
DLLKNGERIEKVEGGG SFPMNEESPLGFSPEEMEAVASKFR [J-GF/SF]	1,103	6,121	11,454	(10%)	1/10	(56%)	5/9	(100%)	10/10	(0%)	0/10	0 pg/mL	4,000 pg/mL	–	–	–
